# Measured values: US9926297B2, “Bicyclic AZA compounds as muscarinic M1 receptor and/or M4 receptor agonists” (Heptares Therapeutics Limited, priority 2014, dated 2018)
# What was measured:
# [1] = biological target: T1, human muscarinic M1 receptor (Homo sapiens, UniProt P11229); assay: Alphascreen Surefire phospho-ERK1/2 functional assay, M1; format: cell-based; details: for EC50: CHO cells stably expressing human M1, phospho-ERK1/2, * = variable results, read-out: pEC50 M1 (converted); for Emax: CHO, read-out: % Emax cf. ACh, M1, CHO cells stably expressing human M1, relative to ACh
# T1 sequence (P11229 1-460): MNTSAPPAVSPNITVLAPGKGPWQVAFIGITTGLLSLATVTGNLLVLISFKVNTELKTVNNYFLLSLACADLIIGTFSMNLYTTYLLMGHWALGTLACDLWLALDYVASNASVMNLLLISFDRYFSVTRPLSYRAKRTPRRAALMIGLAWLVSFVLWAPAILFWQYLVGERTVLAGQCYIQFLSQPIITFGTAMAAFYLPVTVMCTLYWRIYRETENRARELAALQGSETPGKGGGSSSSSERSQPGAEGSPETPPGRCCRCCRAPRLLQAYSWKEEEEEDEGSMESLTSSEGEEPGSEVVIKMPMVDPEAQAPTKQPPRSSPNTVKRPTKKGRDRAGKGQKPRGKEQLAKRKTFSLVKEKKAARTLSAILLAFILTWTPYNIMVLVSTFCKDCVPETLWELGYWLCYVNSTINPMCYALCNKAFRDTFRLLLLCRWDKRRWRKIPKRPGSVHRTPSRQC
# Protocol: CHO cells stably expressing the human muscarinic M1, M2, M3 or M4 receptor were plated (25K/well) onto 96-well tissue culture plates in MEM-alpha+10% dialysed FBS. Once adhered, cells were serum-starved overnight. Agonist stimulation was performed by the addition of 5 μL agonist to the cells for 5 min (37° C.). Media was removed and 50 μL of lysis buffer added. After 15 min, a 4 μL sample was transferred to 384-well plate and 7 μL of detection mixture added. Plates were incubated for 2 h with gentle agitation in the dark and then read on a PHERAstar plate reader.
# pEC50 and Emax figures were calculated from the resulting data for each receptor subtype.
# [2] = biological target: T2, human muscarinic M4 receptor (Homo sapiens, UniProt P08173); assay: Alphascreen Surefire phospho-ERK1/2 functional assay, M4; format: cell-based; details: for EC50: CHO cells stably expressing human M4, phospho-ERK1/2, * = variable results, read-out: pEC50 M4 (converted); for Emax: CHO, read-out: % Emax cf. ACh, M4, CHO cells stably expressing human M4, relative to ACh
# T2 construct: expressed in transfected cells
# T2 sequence (P08173 1-479): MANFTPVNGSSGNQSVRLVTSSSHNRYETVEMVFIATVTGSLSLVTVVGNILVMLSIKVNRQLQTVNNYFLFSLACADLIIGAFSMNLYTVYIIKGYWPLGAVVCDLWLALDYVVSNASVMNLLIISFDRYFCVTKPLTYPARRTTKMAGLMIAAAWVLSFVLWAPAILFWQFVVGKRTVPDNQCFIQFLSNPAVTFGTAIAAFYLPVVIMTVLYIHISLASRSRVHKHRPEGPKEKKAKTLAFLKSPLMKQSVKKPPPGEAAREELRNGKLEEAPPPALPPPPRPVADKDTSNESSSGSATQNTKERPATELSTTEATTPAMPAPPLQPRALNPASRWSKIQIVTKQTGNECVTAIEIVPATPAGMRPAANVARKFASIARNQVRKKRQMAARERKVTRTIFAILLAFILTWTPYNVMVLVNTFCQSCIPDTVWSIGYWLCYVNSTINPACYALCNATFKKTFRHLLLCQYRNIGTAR
# [3] = biological target: T3, human muscarinic M2 receptor (Homo sapiens, UniProt P08172); assay: Alphascreen Surefire phospho-ERK1/2 functional assay, M2; details: for Emax: CHO, read-out: % Emax cf. ACh, M2, CHO cells stably expressing human M2, relative to ACh
# T3 sequence (P08172 1-466): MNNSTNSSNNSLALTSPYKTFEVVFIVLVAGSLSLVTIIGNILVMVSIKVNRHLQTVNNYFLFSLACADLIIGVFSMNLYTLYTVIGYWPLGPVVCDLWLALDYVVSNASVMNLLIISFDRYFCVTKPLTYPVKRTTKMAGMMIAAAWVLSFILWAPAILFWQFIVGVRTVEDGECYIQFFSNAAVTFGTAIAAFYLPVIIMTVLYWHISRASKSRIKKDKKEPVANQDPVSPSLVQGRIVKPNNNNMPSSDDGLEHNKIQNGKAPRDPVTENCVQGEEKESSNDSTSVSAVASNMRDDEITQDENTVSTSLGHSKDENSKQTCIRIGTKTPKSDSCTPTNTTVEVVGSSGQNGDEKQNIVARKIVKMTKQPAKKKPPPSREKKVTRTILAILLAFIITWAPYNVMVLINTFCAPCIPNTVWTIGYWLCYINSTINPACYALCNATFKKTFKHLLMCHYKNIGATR
# [4] = biological target: human muscarinic M3 receptor (Homo sapiens, UniProt P20309); assay: Alphascreen Surefire phospho-ERK1/2 functional assay, M3; details: for Emax: CHO, read-out: % Emax cf. ACh, M3, CHO cells stably expressing human M3; for EC50: pEC50 M3, CHO cells stably expressing human M3, phospho-ERK1/2, * = variable results
# human muscarinic M3 receptor, sequence (P20309 whole entry): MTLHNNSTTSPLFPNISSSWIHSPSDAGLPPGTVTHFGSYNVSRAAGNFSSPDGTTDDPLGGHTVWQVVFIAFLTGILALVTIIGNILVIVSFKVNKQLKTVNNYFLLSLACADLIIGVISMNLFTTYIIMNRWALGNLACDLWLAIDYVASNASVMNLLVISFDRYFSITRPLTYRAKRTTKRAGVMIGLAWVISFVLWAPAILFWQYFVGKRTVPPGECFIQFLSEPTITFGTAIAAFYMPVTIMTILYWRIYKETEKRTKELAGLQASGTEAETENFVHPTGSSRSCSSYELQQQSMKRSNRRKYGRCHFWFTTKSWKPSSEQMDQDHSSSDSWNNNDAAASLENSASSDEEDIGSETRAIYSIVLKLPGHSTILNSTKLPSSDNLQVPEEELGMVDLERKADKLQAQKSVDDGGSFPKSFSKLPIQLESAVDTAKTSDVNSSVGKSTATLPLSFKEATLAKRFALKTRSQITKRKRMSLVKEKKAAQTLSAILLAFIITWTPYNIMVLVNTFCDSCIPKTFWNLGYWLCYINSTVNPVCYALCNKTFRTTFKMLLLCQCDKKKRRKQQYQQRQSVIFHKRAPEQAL
structure (smiles),measurement,setting,value
"CCCn1nccc1C1CCN(C2CC3(CCN(C(=O)OCC)C3)C2)CC1 (single isomer, unassigned) [1-49 Isomer 2, ethyl 2-[4-(1-propyl-1H-pyrazol-5-yl)piperidin-1-yl]-6-azaspiro[3.4]octane-6-carboxylate]",EC50,[1],6310 nM
same,Emax,[1],71%
same,EC50,[2],79.4 nM
same,Emax,[2],92%
same,EC50,[3],> 20000 nM
same,Emax,[3],21%
same,Emax,[4]; relative to ACh,9%
same,EC50,[4],> 20000 nM
"CCOC(=O)N1CCC2(CC(N3CCC(N4CC(F)(F)C[C@@H]4C)CC3)C2)C1 (single isomer, unassigned) [2-106 Isomer 2]",EC50,[1],126 nM
same,Emax,[1],97%
same,EC50,[2],20 nM
same,Emax,[2],102%
same,EC50,[3],> 20000 nM
same,Emax,[3],10%
same,Emax,[4]; relative to ACh,5%
same,EC50,[4],> 20000 nM
"CCOC(=O)N1CCC2(CC(N3CCC(C4CCCN4C(=O)NC)CC3)C2)C1 (single isomer, unassigned) [2-16 Isomer 2, ethyl 2-{4-[1-(methylcarbamoyl)pyrrolidin-2-yl]piperidin-1-yl}-6-azaspiro[3.4]octane-6-carboxylate]",EC50,[1],251 nM
same,Emax,[1],41%
same,EC50,[2],6.31 nM
same,Emax,[2],114%
same,EC50,[3],> 20000 nM
same,Emax,[3],53%
same,Emax,[4]; relative to ACh,7%
same,EC50,[4],> 20000 nM
"CCOC(=O)N1CCC2(CC(N3CCC(c4c(C)cnn4C)CC3)C2)C1 (single isomer, unassigned) [1-58 Isomer 2, ethyl 2-[4-(1,4-dimethyl-1H-pyrazol-5-yl)piperidin-1-yl]-6-azaspiro[3.4]octane-6-carboxylate]",EC50,[1],794 nM
same,Emax,[1],55%
same,EC50,[2],31.6 nM
same,Emax,[2],93%
same,EC50,[3],> 20000 nM
same,Emax,[3],13%
same,Emax,[4]; relative to ACh,2%
same,EC50,[4],> 20000 nM
"CCOC(=O)N1CCC2(CC(N3CCC([C@@H]4CCCN4C(=O)N4CCC(F)(F)C4)CC3)C2)C1 (single isomer, unassigned) [2-37 Isomer 2]",EC50,[1],3160 nM
same,Emax,[1],106%
same,EC50,[2],20 nM
same,Emax,[2],83%
same,EC50,[3],> 20000 nM
same,Emax,[3],33%
same,Emax,[4]; relative to ACh,58%
same,EC50,[4],> 20000 nM
"CCOC(=O)N1CCC2(CC(N3CCC(N4CCCC4=O)CC3)C2)C1 (single isomer, unassigned) [2-111 Isomer 2, ethyl 2-[4-(2-oxopyrrolidin-1-yl)piperidin-1-yl]-6-azaspiro[3.4]octane-6-carboxylate]",EC50,[1],501 nM
same,Emax,[1],31%
same,EC50,[2],31.6 nM
same,Emax,[2],62%
same,EC50,[3],> 20000 nM
same,Emax,[3],1%
same,Emax,[4]; relative to ACh,0%
same,EC50,[4],> 20000 nM
"CCOC(=O)N1CCC2(CC(N3CCC([C@@H]4CCCN4c4ccccc4)CC3)C2)C1 (single isomer, unassigned) [2-77 Isomer 2]",EC50,[1],251 nM
same,Emax,[1],51%
same,EC50,[2],6.31 nM
same,Emax,[2],105%
same,EC50,[3],> 20000 nM
same,Emax,[3],14%
same,Emax,[4]; relative to ACh,47%
same,EC50,[4],> 20000 nM
"CCOC(=O)N1CCC2(CC(N3CCC([C@@H]4CCCN4C(=O)OCCN(C)C)CC3)C2)C1 (single isomer, unassigned) [2-51 Isomer 2]",EC50,[1],> 20000 nM
same,Emax,[1],237%
same,EC50,[2],63.1 nM
same,Emax,[2],53%
same,EC50,[3],> 20000 nM
same,Emax,[3],1%
same,Emax,[4]; relative to ACh,3%
same,EC50,[4],> 20000 nM
"CCNC(=O)N1CCCC1C1CCN(C2CC3(CCN(C(=O)OCC)C3)C2)CC1 (single isomer, unassigned) [2-19 Isomer 2, ethyl 2-{4-[1-(ethylcarbamoyl)pyrrolidin-2-yl]piperidin-1-yl}-6-azaspiro[3.4]octane-6-carboxylate]",EC50,[1],631 nM
same,Emax,[1],44%
same,EC50,[2],7.94 nM
same,Emax,[2],113%
same,EC50,[3],> 20000 nM
same,Emax,[3],3%
same,Emax,[4]; relative to ACh,10%
same,EC50,[4],> 20000 nM
"CCOC(=O)N1CCC2(CC(N3CCC(N4CC(F)(F)C[C@@H]4C(=O)N(C)OC)CC3)C2)C1 (single isomer, unassigned) [2-92 Isomer 2]",EC50,[1],3160 nM
same,Emax,[1],50%
same,EC50,[2],31.6 nM
same,Emax,[2],82%
same,EC50,[3],> 20000 nM
same,Emax,[3],2%
same,Emax,[4]; relative to ACh,5%
same,EC50,[4],> 20000 nM
"CCOC(=O)N1CCC2(CC(N3CCC(N4CC(F)(F)C[C@@H]4C(C)O)CC3)C2)C1 (single isomer, unassigned) [2-109 Isomer 2]",EC50,[1],398 nM
same,Emax,[1],50%
same,EC50,[2],15.8 nM
same,Emax,[2],91%
same,EC50,[3],> 20000 nM
same,Emax,[3],9%
same,"% Emax cf. ACh, M3","[4]; CHO cells stably expressing human M3, relative to ACh",26%
same,EC50,[4],10000 nM
"CNC(=O)N1CCC[C@H]1C1CCN(C2CC3(CCN(C(=O)OC)C3)C2)CC1 (single isomer, unassigned) [2-15 Isomer 2]",EC50,[1],398 nM
same,Emax,[1],72%
same,EC50,[2],15.8 nM
same,Emax,[2],111%
same,EC50,[3],> 20000 nM
same,Emax,[3],9%
same,Emax,[4]; relative to ACh,9%
same,EC50,[4],> 20000 nM
"CCOC(=O)N1CCC2(CC(N3CCC([C@@H]4CCCN4C(=S)NC)CC3)C2)C1 (single isomer, unassigned) [2-75 Isomer 2]",EC50,[1],316 nM
same,Emax,[1],80%
same,EC50,[2],2.51 nM
same,Emax,[2],109%
same,EC50,[3],> 20000 nM
same,Emax,[3],6%
same,Emax,[4]; relative to ACh,4%
same,EC50,[4],> 20000 nM
"CCOC(=O)N1CCC2(CC(N3CCC(C4CCCN4C(C)=O)CC3)C2)C1 (single isomer, unassigned) [2-3 Isomer 2, ethyl 2-[4-(1-acetylpyrrolidin-2-yl)piperidin-1-yl]-6-azaspiro[3.4]octane-6-carboxylate]",EC50,[1],10000 nM
same,Emax,[1],32%
same,EC50,[2],50.1 nM
same,Emax,[2],89%
same,EC50,[3],> 20000 nM
same,Emax,[3],14%
same,Emax,[4]; relative to ACh,4%
same,EC50,[4],> 20000 nM
"CCOC(=O)N1CCC2(CC(N3CCC(c4ccc[nH]c4=O)CC3)C2)C1 (single isomer, unassigned) [3-2 Isomer 1, ethyl 2-[4-(2-oxo-1,2-dihydropyridin-3-yl)piperidin-1-yl]-6-azaspiro[3.4]octane-6-carboxylate]",EC50,[1],31.6 nM
same,Emax,[1],97%
same,EC50,[2],6.31 nM
same,Emax,[2],115%
same,EC50,[3],> 20000 nM
same,Emax,[3],7%
same,Emax,[4]; relative to ACh,0%
same,EC50,[4],> 20000 nM
"CCOC(=O)N1CCC2(CC(N3CCC(N4CCC[C@@H]4C(=O)OC)CC3)C2)C1 (single isomer, unassigned) [2-84 Isomer 2]",EC50,[1],251 nM
same,Emax,[1],36%
same,EC50,[2],20 nM
same,Emax,[2],82%
same,EC50,[3],> 20000 nM
same,EC50,[4],> 20000 nM
"CCOC(=O)N1CCC2(CC(N3CCC([C@@H]4CCCN4C(=O)OCC(F)(F)F)CC3)C2)C1 (single isomer, unassigned) [2-48 Isomer 2]",EC50,[1],316 nM
same,Emax,[1],34%
same,EC50,[2],10 nM
same,Emax,[2],81%
same,EC50,[3],> 20000 nM
same,Emax,[3],3%
same,Emax,[4]; relative to ACh,5%
same,EC50,[4],> 20000 nM
"CCOC(=O)N1CCC2(CC(N3CCC([C@@H]4CCCN4C(=O)C4CC4)CC3)C2)C1 (single isomer, unassigned) [2-8 Isomer 2]",EC50,[1],631 nM
same,Emax,[1],36%
same,EC50,[2],15.8 nM
same,Emax,[2],86%
same,EC50,[3],> 20000 nM
same,Emax,[3],3%
same,Emax,[4]; relative to ACh,4%
same,EC50,[4],> 20000 nM
